Results as given in patent US20130273180A1, “SYSTEM AND METHOD FOR IMPROVING OUTCOME OF CEREBRAL ISCHEMIA” (priority 2012, published 2013).
Entries after “also recorded” stand apart in the source; their conditions may differ.

What was measured:
intubated rodents = assay: Cerebral blood flow by cortical laser Doppler during intranasal nitric oxide in intubated rodents; format: in vivo
Protocol: (§1) In intubated rodents, the inventors have shown that cerebral blood flow increases by 100% within 60 minutes of intranasal nitric oxide delivery.

[1] = tested on: humans (normal volunteers); assay: Tolerability of intranasal nitric oxide delivery in humans (normal volunteers); format: in vivo, human
Excerpt: While nitric oxide may be given intranasally and without inhalation into the lungs to intubated, comatose individuals the tolerability of intranasal nitric oxide in awake humans has not previously been investigated. The inventors have tested the effect of nitric oxide in humans (normal volunteers) during intranasal delivery. […] Therefore it can easily be tolerated by awake, non-intubated patients.

[2] = tested on: human with focal cerebral ischemia; assay: CT perfusion scanning before and after intranasal nitric oxide in intubated patients with cerebral ischemia; format: in vivo
[3] = tested on: intubated rodents, carotid artery occlusion model; assay: Carotid artery occlusion model, Speckle laser Doppler, intubated rodents; format: in vivo
Protocol: as §1
Increase in cerebral blood flow is attributable to focal intranasal or intra-oral effect of nitric oxide rather than to systemic absorption of the gas. […] The effect on cerebral blood flow during intranasal delivery of nitric oxide with concomitant air inhalation into the lungs is therefore a focal effect on intranasal and intracranial vasculature attributable specifically to nitric oxide. […] In a non-intubated patient, nitric oxide inhalation can be prevented by occluding the nasal cavity anterior or posterior to the site of gas delivery. This is achieved by means of an anterior occlusion device such a rigid member, an expandable member, a compressible member, a sponge, a porous member, a plug, a balloon, foam and/or combinations of the foregoing, which prevent inhalation through the nostrils while maintaining a high concentration of nitric oxide in the nasal cavity. A non-intubated patient may be allowed to inhale air into the lungs during nitric oxide delivery into the nasal cavity by an optional central lumen with the distal orifice beyond the sites of nasal gas delivery and occlusion device.

[4] = Post Rx, one hour of intranasal non-inhaled nitric oxide

In the case of `[N]=O` [nitric oxide], the “cerebral blood flow (FIG. 8)” value (intubated rodents; cortical laser Doppler, during intranasal administration) is reported as “doubling”, the “cerebral blood flow increase” value (intubated rodents; within 60 minutes of intranasal delivery, non-inhaled) is reported as 100% and the “sensation during intranasal delivery” value ([1]; concentrations up to 100 PPM, normal volunteers) is reported as “does not elicit any sensation”. The “tolerability of gas treatment” value ([1]; high concentration, delivered intra-nasally and without inhalation) was “tolerated”, the “Cerebral Blood Flow, Changes in ACA Watershed” value ([2]; Post Rx) was “Normalization,” and the “Mean Transit Time, Changes in ACA Watershed” value ([2]; Post Rx) was “Normalization”. For the same molecule, the “increase in perfusion on L (ACA Watershed)” value ([2]; Post Rx versus Pre Rx, ischemic left hemisphere) was 67% increase in, the “Cerebral Blood Flow, Left Hemisphere (ischemic)” value [2, 4] was 52 and the “Cerebral Blood Flow, Right Hemisphere (normal)” value [2, 4] was 45. For the same molecule, the “Mean Transit Time, Left Hemisphere (ischemic)” value [2, 4] was 6.0 s, the “Mean Transit Time, Right Hemisphere (normal)” value [2, 4] was 6.1 s and the “cerebral perfusion on CT perfusion scan” value ([2]; before and after treatment, human with focal cerebral ischemia) was “improvement; also recorded: augmentation of cerebral perfusion and normalization of regional perfusion abnormalities”. For the same molecule, the “cerebral ischemia (FIG. 9)” value ([3]; Speckle laser Doppler tracing, intubated rodents) was “reduction” and the “perfusion in the ischemic hemisphere” value ([3]; during the carotid occlusion and following ligature release) was “improved”.
